According to US10272095B2 (GlaxoSmithKline Intellectual Property Development Limited, priority 2015, dated 2019):
Counter-ions that a name gives are not always drawn.

These molecules were tested on NQO1 specific enzyme activity in BEAS-2B cells (assay: BEAS-2B NQO1 MTT assay). Settings: Homo sapiens, BEAS-2B, 48 h, NQO1 specific enzyme activity induction in BEAS-2B cells, 48 hours; read-out: EC50.
Assay type: cell-based
Text: NAD(P)H:quinone oxidoreductase 1 (NQO1), also called DT diaphorase, is a homodimeric FAD-containing enzyme that catalyzes obligatory NAD(P)H-dependent two-electron reductions of quinones and protects cells against the toxic and neoplastic effects of free radicals and reactive oxygen species arising from one-electron reductions. The transcription of NQO1 is finely regulated by NRF2, and thus NQO1 activity is a good marker for NRF2 activation. On day one, frozen BEAS-2B cells (ATCC) are thawed in a water bath, counted, and re-suspended at a concentration of 250,000 cells/mL. Fifty microliters of cells are plated in 384 well black clear-bottomed plates. Plates are incubated at 37° C., 5% CO2 overnight. On day two, plates are centrifuged and 50 nL of compound or controls are added to the cells. Plates are then incubated at 37° C., 5% CO2 for 48 hours. On day four, medium is aspirated from the plate and crude cell lysates are made by adding 13 uL of 1× Cell Signaling Technologies lysis buffer with 1 Complete, Mini, EDTA-free Protease Inhibitor Tablet (Roche) for each 10 mL of lysis buffer. After lysis plates are incubated for 20 minutes at room temperature. Two microliters of lysate are removed for use in Cell Titer Glo assay (Promega) and MTT cocktail is prepared (Prochaska et. al. 1998) for measurement of NQO1 activity. Fifty microliters of MTT cocktail is added to each well, plate is centrifuged, and analyzed on an Envision plate reader (Perkin Elmer) using Absorbance 570 nm label for 30 minutes. Product formation is measured kinetically and the pEC50 of NQO1 specific activity induction is calculated by plotting the change in absorbance (Delta OD/min) versus the log of compound concentration followed by 3-parameter fitting.
EC50s<1 nM (+++++), EC50s 10 nM-1 nM (++++), EC50s 10-100 nM (+++), EC50s 100 nM-1 uM (++), EC50s 1 uM-10 uM (+), EC50s>10 uM (−), or were not determined (ND).

| Structure (SMILES) | EC50 [µM] |
| --- | --- |
| CCn1cc(CCC(CC(=O)O)c2ccc3c(c2)[C@@H]2[C@@H](CC(=O)N2CC2CCCCC2)C3)nn1 (stereo partly drawn) [Example 3, 3-[(3aR,8bS)-1-(cyclohexylmethyl)-2-oxo-1H,2H,3H,3aH,4H,8bH-indeno[1,2-b]pyrrol-7-yl]-5-(1-ethyl-1H-1,2,3-triazol-4-yl)pentanoic Acid] | 1 to 10 |
| Cc1c(C(CC(=O)O)c2ccc3c(c2)C2C(CC(=O)N2CC2CCC4CCCCC4C2)C3)ccc2c1nnn2C (stereo not drawn) [Example 4, 3-[1-(Decahydronaphthalen-2-ylmethyl)-2-oxo-1H,2H,3H,3aH,4H,8bH-indeno[1,2-b]pyrrol-7-yl]-3-(1,4-dimethyl-1H-1,2,3-benzotriazol-5-yl)propanoic Acid] | 0.01 to 0.1 |
| CCCC1CCC(CN2C(=O)CC3Cc4ccc(C(CC(=O)O)c5ccc6c(nnn6C)c5C)cc4C32)CC1 (stereo not drawn) [Example 5, 3-(1,4-Dimethyl-1H-1,2,3-benzotriazol-5-yl)-3-{2-oxo-1-[(4-propylcyclohexyl)methyl]-1H,2H,3H,3aH,4H,8bH-indeno[1,2-b]pyrrol-7-yl}propanoic Acid] | 0.001 to 0.01 |
| Cc1c(C(CC(=O)O)c2ccc3c(c2)C2C(CCN2C(=O)OC(C)(C)C)C3)ccc2c1nnn2C (stereo not drawn) [Example 6, 3-{1-[(tert-Butoxy)carbonyl]-1H,2H,3H,3aH,4H,8bH-indeno[1,2-b]pyrrol-7-yl}-3-(1,4-dimethyl-1H-1,2,3-benzotriazol-5-yl)propanoic Acid] | 0.1 to 1 |
| Cc1c(C(CC(=O)O)c2ccc3c(c2)C2C(CCN2C(=O)CC2CCCCC2)C3)ccc2c1nnn2C (stereo not drawn) [Example 7, 3-[1-(2-Cyclohexylacetyl)-1H,2H,3H,3aH,4H,8bH-indeno[1,2-b]pyrrol-7-yl]-3-(1,4-dimethyl-1H-1,2,3-benzotriazol-5-yl)propanoic Acid] | 1 to 10 |
| Cc1c(C(CC(=O)O)c2ccc3c(c2)C2C(CCN2C(=O)C(C)c2ccccc2)C3)ccc2c1nnn2C (stereo not drawn) [Example 9, 3-(1,4-Dimethyl-1H-1,2,3-benzotriazol-5-yl)-3-[1-(2-phenylpropanoyl)-1H,2H,3H,3aH,4H,8bH-indeno[1,2-b]pyrrol-7-yl]propanoic Acid] | 1 to 10 |
| CCCC(C)C(=O)N1CCC2Cc3ccc(C(CC(=O)O)c4ccc5c(nnn5C)c4C)cc3C21 (stereo not drawn) [Example 10, 3-(1,4-Dimethyl-1H-1,2,3-benzotriazol-5-yl)-3-[1-(2-methylpentanoyl)-1H,2H,3H,3aH,4H,8bH-indeno[1,2-b]pyrrol-7-yl]propanoic Acid] | 1 to 10 |
| Cc1c(C(CC(=O)O)c2ccc3c(c2)C2C(CCN2C(=O)Cc2ccccc2Cl)C3)ccc2c1nnn2C (stereo not drawn) [Example 11, 3-{1-[2-(2-Chlorophenyl)acetyl]-1H,2H,3H,3aH,4H,8bH-indeno[1,2-b]pyrrol-7-yl}-3-(1,4-dimethyl-1H-1,2,3-benzotriazol-5-yl)propanoic Acid] | 1 to 10 |
| Cc1c(C(CC(=O)O)c2ccc3c(c2)C2C(CCN2C(=O)Cc2ccccc2C#N)C3)ccc2c1nnn2C (stereo not drawn) [Example 12, 3-{1-[2-(2-Cyanophenyl)acetyl]-1H,2H,3H,3aH,4H,8bH-indeno[1,2-b]pyrrol-7-yl}-3-(1,4-dimethyl-1H-1,2,3-benzotriazol-5-yl)propanoic Acid] | 1 to 10 |
| Cc1c(C(CC(=O)O)c2ccc3c(c2)C2C(CCN2C(=O)CC(C)(C)C)C3)ccc2c1nnn2C (stereo not drawn) [Example 13, 3-(1,4-Dimethyl-1H-1,2,3-benzotriazol-5-yl)-3-[1-(3,3-dimethylbutanoyl)-1H,2H,3H,3aH,4H,8bH-indeno[1,2-b]pyrrol-7-yl]propanoic Acid] | 1 to 10 |
| CCCCN(C)C(=O)N1CCC2Cc3ccc(C(CC(=O)O)c4ccc5c(nnn5C)c4C)cc3C21 (stereo not drawn) [Example 14, 3-{1-[Butyl(methyl)carbamoyl]-1H,2H,3H,3aH,4H,8bH-indeno[1,2-b]pyrrol-7-yl}-3-(1,4-dimethyl-1H-1,2,3-benzotriazol-5-yl)propanoic Acid] | 1 to 10 |
| COc1cc(C(CC(=O)O)c2ccc3c(c2)C2C(CCN2C(=O)OC(C)(C)C)C3)cc2nnn(C)c12 (stereo not drawn) [Example 15, 3-{1-[(tert-Butoxy)carbonyl]-1H,2H,3H,3aH,4H,8bH-indeno[1,2-b]pyrrol-7-yl}-3-(7-methoxy-1-methyl-1H-1,2,3-benzotriazol-5-yl)propanoic Acid] | 0.1 to 1 |
| CCn1nnc2c(C)c(C(CC(=O)O)c3ccc4c(c3)C3C(CCN3C(=O)OC(C)(C)C)C4)ccc21 (stereo not drawn) [Example 16, 3-(1-(tert-Butoxycarbonyl)-1,2,3,3a,4,8b-hexahydroindeno[1,2-b]pyrrol-7-yl)-3-(1-ethyl-4-methyl-1H-benzo[d][1,2,3]triazol-5-yl)propanoic Acid] | 0.1 to 1 |
| CCn1cc(CCC(CC(=O)O)c2ccc3c(c2)C2C(CCN2C(=O)OC(C)(C)C)C3)nn1 (stereo not drawn) [Example 17, 3-(1-(tert-Butoxycarbonyl)-1,2,3,3a,4,8b-hexahydroindeno[1,2-b]pyrrol-7-yl)-5-(1-ethyl-1H-1,2,3-triazol-4-yl)pentanoic Acid] | 1 to 10 |
| COc1cc(C(CC(=O)O)c2ccc3c(c2)C2C(CCN2C(=O)OC(C)(C)C)C3)c(C)c2nnn(C)c12 (stereo not drawn) [Example 18, 3-(1-(tert-Butoxycarbonyl)-1,2,3,3a,4,8b-hexahydroindeno[1,2-b]pyrrol-7-yl)-3-(7-methoxy-1,4-dimethyl-1H-benzo[d][1,2,3]triazol-5-yl)propanoic Acid] | 0.01 to 0.1 |
| Cc1c(C(CC(=O)O)c2ccc3c(c2)C2C(CC3)CC(=O)N2CC2CCCCC2)ccc2c1nnn2C (stereo not drawn) [Example 19, 3-(1-(Cyclohexylmethyl)-2-oxo-2,3,3a,4,5,9b-hexahydro-1H-benzo[g]indol-8-yl)-3-(1,4-dimethyl-1H-benzo[d][1,2,3]triazol-5-yl)propanoic Acid] | 0.1 to 1 |
| Cc1c(C(CC(=O)O)c2ccc3c(c2)C2C(C3)OC(=O)N2CC2CCCCC2)ccc2c1nnn2C (stereo not drawn) [Example 20, 3-(3-(Cyclohexylmethyl)-2-oxo-3,3a,8,8a-tetrahydro-2H-indeno[1,2-d]oxazol-5-yl)-3-(1,4-dimethyl-1H-benzo[d][1,2,3]triazol-5-yl)propanoic Acid] | 0.1 to 1 |
| Cc1c(C(CC(=O)O)c2ccc3c(c2)C(N2Cc4cc(Cl)ccc4OC(C)(C)C2)CC3)ccc2c1nnn2C (stereo not drawn) [Example 21, 3-(3-(7-Chloro-2,2-dimethyl-2,3-dihydrobenzo[f][1,4]oxazepin-4(5H)-yl)-2,3-dihydro-1H-inden-5-yl)-3-(1,4-dimethyl-1H-benzo[d][1,2,3]triazol-5-yl)propanoic Acid, Formic Acid Salt] | 0.001 to 0.01 |
| Cc1ccc2c(c1)CN(C1CCc3ccc(C(CC(=O)O)c4ccc5c(nnn5C)c4C)cc31)CC(C)(C)O2 (stereo not drawn) [Example 22, 3-(1,4-Dimethyl-1H-benzo[d][1,2,3]triazol-5-yl)-3-(3-(2,2,7-trimethyl-2,3-dihydrobenzo[f][1,4]oxazepin-4(5H)-yl)-2,3-dihydro-1H-inden-5-yl)propanoic Acid] | 0.001 to 0.01 |
| COc1ccc2c(c1)CN(C1CCc3ccc(C(CC(=O)O)c4ccc5c(nnn5C)c4C)cc31)CC(C)(C)O2 (stereo not drawn) [Example 23, 3-(1,4-Dimethyl-1H-benzo[d][1,2,3]triazol-5-yl)-3-(3-(7-methoxy-2,2-dimethyl-2,3-dihydrobenzo[f][1,4]oxazepin-4(5H)-yl)-2,3-dihydro-1H-inden-5-yl)propanoic Acid] | 0.001 to 0.01 |
| Cc1ccc2c(c1)OC(C)(C)CN(C1CCc3ccc(C(CC(=O)O)c4ccc5c(nnn5C)c4C)cc31)C2 (stereo not drawn) [Example 24, 3-(1,4-Dimethyl-1H-benzo[d][1,2,3]triazol-5-yl)-3-(3-(2,2,8-trimethyl-2,3-dihydrobenzo[f][1,4]oxazepin-4(5H)-yl)-2,3-dihydro-1H-inden-5-yl)propanoic Acid, Formic Acid Salt] | 0.001 to 0.01 |
| Cc1c(C(CC(=O)O)c2ccc3c(c2)C(N2Cc4ccc(F)cc4OC(C)(C)C2)CC3)ccc2c1nnn2C (stereo not drawn) [Example 25, 3-(1,4-Dimethyl-1H-benzo[d][1,2,3]triazol-5-yl)-3-(3-(8-fluoro-2,2-dimethyl-2,3-dihydrobenzo[f][1,4]oxazepin-4(5H)-yl)-2,3-dihydro-1H-inden-5-yl)propanoic Acid] | 0.001 to 0.01 |
| Cc1cc(F)ccc1C(c1ccc2c(c1)C(N1Cc3ccccc3OC(C)(C)C1)CC2)C(C)(C)C(=O)O (stereo not drawn) [Example 26, 3-(3-(2,2-Dimethyl-2,3-dihydrobenzo[f][1,4]oxazepin-4(5H)-yl)-2,3-dihydro-1H-inden-5-yl)-3-(4-fluoro-2-methylphenyl)-2,2-dimethylpropanoic Acid] | 0.01 to 0.1 |

Same assay, conditions: NQO1 specific enzyme activity induction in BEAS-2B cells, 48 hours; read-out: EC50

| Structure (SMILES) | EC50 [µM] |
| --- | --- |
| Cc1c(C(CC(=O)O)c2ccc3c(c2)C2C(CCN2C(=O)C(C)c2ccccc2)C3)ccc2c1nnn2C (stereo not drawn) [Example 8, 3-(1,4-Dimethyl-1H-1,2,3-benzotriazol-5-yl)-3-[1-(2-phenylpropanoyl)-1H,2H,3H,3aH,4H,8bH-indeno[1,2-b]pyrrol-7-yl]propanoic Acid] | 1 to 10 |
